Experimental data reported in PubChem BioAssay AID1963967 (Molecular Pharmacology Branch, DTP, NCI, 2024).

Tested on: 855422-203-R-J1-PDC spheroids with HUVEC/MSC, viability
Assay: Anticancer human tumor 855422-203-R-J1-PDC patient-derived bladder carcinoma cell line growth inhibition [PI3K]
Conditions: for viability, T/C: stronger effect = lower value
Outline: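 Complex 3D spheroids (cancer cells + endothelial HUVEC + mesenchymal stem cells); drug pairs of targeted agent x inavolisib/alpelisib/duvelisib/copanlisib; half-log series from ~Cmax, max 10 microM if Cmax unknown; endpoint viability.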

[1] = curve of first compound, second compound 0.0316 µM
[2] = curve of first compound, second compound 0.1 µM
[3] = curve of first compound, second compound 0.316 µM
[4] = curve of first compound, second compound 1 µM
[5] = curve of first compound, second compound 3.16 µM
[6] = curve of first compound, second compound 10 µM
[7] = second compound 0.0316 µM, first compound 0.0316 µM
[8] = second compound 0.0316 µM, first compound 0.1 µM
[9] = second compound 0.0316 µM, first compound 0.316 µM
[10] = second compound 0.0316 µM, first compound 1 µM
[11] = second compound 0.0316 µM, first compound 3.16 µM
[12] = second compound 0.0316 µM, first compound 10 µM
[13] = second compound 0.1 µM, first compound 0.0316 µM
[14] = second compound 0.1 µM, first compound 0.1 µM
[15] = second compound 0.1 µM, first compound 0.316 µM
[16] = second compound 0.1 µM, first compound 1 µM
[17] = second compound 0.1 µM, first compound 3.16 µM
[18] = second compound 0.1 µM, first compound 10 µM
[19] = second compound 0.316 µM, first compound 0.0316 µM
[20] = second compound 0.316 µM, first compound 0.1 µM
[21] = second compound 0.316 µM, first compound 0.316 µM
[22] = second compound 0.316 µM, first compound 1 µM
[23] = second compound 0.316 µM, first compound 3.16 µM
[24] = second compound 0.316 µM, first compound 10 µM
[25] = second compound 1 µM, first compound 0.0316 µM
[26] = second compound 1 µM, first compound 0.1 µM
[27] = second compound 1 µM, first compound 0.316 µM
[28] = second compound 1 µM, first compound 1 µM
[29] = second compound 1 µM, first compound 3.16 µM
[30] = second compound 1 µM, first compound 10 µM
[31] = second compound 3.16 µM, first compound 0.0316 µM
[32] = second compound 3.16 µM, first compound 0.1 µM
[33] = second compound 3.16 µM, first compound 0.316 µM
[34] = second compound 3.16 µM, first compound 1 µM
[35] = second compound 3.16 µM, first compound 3.16 µM
[36] = second compound 3.16 µM, first compound 10 µM
[37] = second compound 10 µM, first compound 0.0316 µM
[38] = second compound 10 µM, first compound 0.1 µM
[39] = second compound 10 µM, first compound 0.316 µM
[40] = second compound 10 µM, first compound 1 µM
[41] = second compound 10 µM, first compound 3.16 µM
[42] = second compound 10 µM, first compound 10 µM
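Note: agents incubated with spheroids for one week before read-out.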
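Throughout, for viability, T/C: 100% = DMSO vehicle-treated control wells.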

SMILES: COc1c(OCCCN2CCOCC2)ccc2c3n(c(=NC(=O)c4cnc(N)nc4)nc12)CCN3
- viability, T/C (compound 0.00316 µM): 100% [middle of 8 runs]
- viability, T/C (compound 0.01 µM): 92% [middle of 8 runs]
- viability, T/C (compound 0.0316 µM): 71.8% [middle of 8 runs]
- viability, T/C (compound 0.1 µM): 30.5% [middle of 8 runs]
- viability, T/C (compound 0.316 µM): 9.42% [middle of 8 runs]
- viability, T/C (compound 1 µM): 4.6% [middle of 8 runs]
- IC50 (compound alone, run of 05/09/2023): 58.2 nM [middle of 8 runs]

SMILES: C#Cc1c(F)ccc2cc(O)cc(-c3ncc4c(N5CC6CCC(C5)N6)nc(OCC56CCCN5CC(F)C6)nc4c3F)c12 (stereo unspecified) + CC(Nc1ncnc2nc[nH]c12)c1cc2cccc(Cl)c2c(=O)n1-c1ccccc1
- IC50 [1]: > 10 µM
- IC50 [2]: > 10 µM
- IC50 [3]: > 10 µM
- IC50 [4]: > 10 µM
- IC50 [5]: > 10 µM
- IC50 [6]: > 10 µM
- viability, T/C [7]: 105%
- viability, T/C [8]: 101%
- viability, T/C [9]: 116%
- viability, T/C [10]: 98.3%
- viability, T/C [11]: 112%
- viability, T/C [12]: 119%
- viability, T/C [13]: 107%
- viability, T/C [14]: 102%
- viability, T/C [15]: 107%
- viability, T/C [16]: 101%
- viability, T/C [17]: 110%
- viability, T/C [18]: 112%
- viability, T/C [19]: 98.1%
- viability, T/C [20]: 108%
- viability, T/C [21]: 96.6%
- viability, T/C [22]: 102%
- viability, T/C [23]: 106%
- viability, T/C [24]: 121%
- viability, T/C [25]: 102%
- viability, T/C [26]: 102%
- viability, T/C [27]: 103%
- viability, T/C [28]: 109%
- viability, T/C [29]: 104%
- viability, T/C [30]: 115%
- viability, T/C [31]: 107%
- viability, T/C [32]: 99.1%
- viability, T/C [33]: 112%
- viability, T/C [34]: 93.7%
- viability, T/C [35]: 98.1%
- viability, T/C [36]: 126%
- viability, T/C [37]: 87.2%
- viability, T/C [38]: 82.8%
- viability, T/C [39]: 80%
- viability, T/C [40]: 88.5%
- viability, T/C [41]: 94%
- viability, T/C [42]: 88.9%

SMILES: CC(C)NCC(C(=O)N1CCN(c2ncnc3c2C(C)CC3O)CC1)c1ccc(Cl)cc1 (stereo unspecified) + CC(Nc1ncnc2nc[nH]c12)c1cc2cccc(Cl)c2c(=O)n1-c1ccccc1
- IC50 [1]: 1.16 µM
- IC50 [2]: 1.12 µM
- IC50 [3]: 1.13 µM
- IC50 [4]: 1.13 µM
- IC50 [5]: 1.28 µM
- IC50 [6]: 0.937 µM
- viability, T/C [7]: 114%
- viability, T/C [8]: 83.2%
- viability, T/C [9]: 83.9%
- viability, T/C [10]: 46.1%
- viability, T/C [11]: 34.5%
- viability, T/C [12]: 16.8%
- viability, T/C [13]: 103%
- viability, T/C [14]: 88.2%
- viability, T/C [15]: 70%
- viability, T/C [16]: 51.4%
- viability, T/C [17]: 34.9%
- viability, T/C [18]: 19%
- viability, T/C [19]: 101%
- viability, T/C [20]: 90.4%
- viability, T/C [21]: 75.5%
- viability, T/C [22]: 51.7%
- viability, T/C [23]: 31.9%
- viability, T/C [24]: 18.8%
- viability, T/C [25]: 88.6%
- viability, T/C [26]: 93%
- viability, T/C [27]: 81.3%
- viability, T/C [28]: 50.1%
- viability, T/C [29]: 32.8%
- viability, T/C [30]: 19.5%
- viability, T/C [31]: 88.4%
- viability, T/C [32]: 81.8%
- viability, T/C [33]: 73.1%
- viability, T/C [34]: 47.6%
- viability, T/C [35]: 40%
- viability, T/C [36]: 16.3%
- viability, T/C [37]: 85.3%
- viability, T/C [38]: 81.9%
- viability, T/C [39]: 69.8%
- viability, T/C [40]: 47.1%
- viability, T/C [41]: 30.1%
- viability, T/C [42]: 15.2%
